Experimental data reported in patent US7291451B2, “Modulation of pericyte proliferation” (XOMA Technology Ltd., priority 2000, dated 2007).

Legend:
[1] = system: bovine retinal endothelial cells (BREC); experiment: Cell growth assay (DNA content) in bovine retinal endothelial cells; format: cell-based
Description: Primary cultures of bovine retinal endothelial cells (BREC) were isolated by homogenization and a series of filtration steps as described in King et al., J. Clin. Invest., 1985, 75:1028-36. BREC were subsequently cultured with endothelial cell basal medium (EBM; Clonetics, San Diego, Calif.). supplemented with 10% plasma-derived horse serum (PDHS), 50 mg/l heparin, and 50 μg/ml endothelial cell growth factor (ECGF, Roche, Indianapolis, Ind.). Cells were characterized for homogeneity by their immunoreactivity with anti-factor VIII antibody. Cells remained morphologically unchanged under these conditions, as confirmed by light microscopy. Only cells from passages 2 through 7 were used for the experiments.
(§1) A cell growth assay was performed as follows: Cells were plated onto 12-well culture plates and incubated overnight. The cells were treated with vehicle, vascular endothelial growth factor (VEGF, R & D Systems, Minneapolis, Minn.) at 25 ng/ml, serum, compounds, or combinations thereof. The medium is changed during the incubation period, with fresh medium and fresh test compound added every 2 days. After incubation for indicated time period at 37° C., the cells were lysed in 0.1% SDS and DNA content was measured by means of Hoechst-33258 dye and a fluorometer (model TKO-100, Hoefer Scientific Instruments, San Francisco, Calif.). It has been shown that total cellular DNA content measured in this manner correlates closely with actual cell number as determined by hemocytometer counting of trypsinized cells.
Determinations were performed in triplicate and all experiments were repeated at least three times. Results are expressed as the mean ±standard deviation, unless otherwise indicated. Statistical analysis employed Student's t-test or analysis of variance to compare quantitative data populations with normal distributions and equal variance. Data were analyzed using the Mann-Whitney rank sum test or the Kruskal-Wallis test for populations with non-normal distributions or unequal variance. A P-value of <0.05 was considered statistically significant.

[2] = system: retinal neovascularization; experiment: Oxygen-pulse induced retinal neovascularization in newborn rats; format: in vivo; conditions: for retinal neovascular score (sum of quadrant scores): P18, vehicle 6.41
Description: In contrast to the assay for anti-angiogenesis effect of BPI protein products in neonatal mice described in part A above, experiments were conducted in newborn rats Crj:CD(SD)IGS (Charles River, Japan). Unlike the method described in part A above of producing ischemia-induced retinal neovascularization by exposing neonatal mice to a constant level of oxygen at 75±2% for 5 days, newborn rats were exposed to oxygen pulses as described below.
The newborn rats within a few hours after birth were put into the oxygen chamber (780 mm×520 mm×520 mm). The oxygen level in the experimental chamber was controlled with a computer program (Oxycycler, Reming Bioinstruments, N.Y., US). The oxygen level was maintained at 80% for 20.5 hours, then rapidly dropped to 21% for 30 minutes before a gradual return to 80% during the following 3 hours. The program was run for 11 cycles (24 hour per cycle). At the end of 11th cycle (postnatal day 11 (P11)), mothers and newborn rats were transferred to room air condition and kept for 7 days. For a seven day period step newborn rats were injected intraperitoneally with XMP.679 at doses of 2, 6 and 20 mg/kg. On P18, the rats were sacrificed, and the left eyes were enucleated. The eyes were fixed in 4% paraformaldehyde (PFA) for 1 hour. Using scissors, the cornea and sclera were removed from the eyecup. The lens was removed with tweezers, and the vitreous was thoroughly removed with tweezers and scissors. The semi-spherical retina was fixed in 4% PFA and stained, using the method of adenosine diphosphatase (ADPase) histochemistry. Abnormal neovascularization was assessed on P18 by histochemically staining retina for ADPase activity. This procedure preferentially stains retinal vascular endothelium and microglia in rats of this age. The retina was incubated in ADPase incubation medium at 37° C. for 1 hour with gentle agitation. It was then washed thoroughly in cold saline, and treated in a 1:10 dilution of ammonium sulfide for 1 minute. The retina was then washed in […] to remove sulfide. The retina was placed in a small drop of liquid on a saline-coated slide. […] The retina was put in a layer of Perma Fluor® covered with a cover glass. Glomerular buds (tiny popcorn) upon the surface of the regina, fan shaped neovascular fronds, and ridges (vascular complexes that cause a distinct elongate elevation of the retinal surface, and which usually contain several vessels running parallel to the ciliary body) were identified.
Criteria for scoring neovascular intensity were as follows: 0: Nothing; 1: <5 buds; 2: >5 buds, or a frond; 3: Ridge<half of quadrant; or 4: Ridge>half of quadrant. The retinal neovascular scores were equal to the sum of quadrant scores. […]

[3] = system: Bovine retinal pigment epithelial cells (RPEC); experiment: Cell growth assay in bovine retinal pigment epithelial cells; format: cell-based; conditions: 15 μg/ml
Description: as §1
Bovine retinal pigment epithelial cells (RPEC) were isolated by gentle scraping after removal of the neural retina and incubation with 0.2% collagenase as described in King et al., Diabetes, 1987, 36:1460-7. RPEC were cultured in DMEM with 5.5 mM glucose and 10% calf serum (CS, Gibco BRL, Grand Island, N.Y.). Cells were cultured in 5% CO2 at 37° C., and media were changed every other days. Cells were characterized for their homogeneity by immunoreactivity with anti-cytokeratin antibody for RPEC. […]

[4] = system: MAP kinase phosphorylation; experiment: MAP kinase phosphorylation in BRPC; format: cell-based, bovine; conditions: 5 μg/ml, 1 to 60 minutes
Description: Experiments were also performed in which the level of MAP kinase phosphorylation was determined in BRPC treated with 75 μg/ml rBPI21 or 5 μg/ml XMP.679. […] These observations indicate that exemplary BPI protein products rBPI21 and, to a lesser extent, XMP.679, enhance MAP kinase phosphorylation in BRPC.

XMP.679: BPI-derived peptide derived from BPI domain II, SEQ ID NO: 3 (KLFKAQAKAKG; XMP.679; listed as Homo sapiens)
effect on DNA content ([1]; 1 μg/ml compound, with and without VEGF): did not have a significant effect | effect on VEGF-dependent growth ([1]; VEGF 25 ng/ml plus 1 μg/ml compound): had no effect | effect on VEGF-dependent growth ([1]; VEGF 25 ng/ml plus 5 and 15 μg/ml compound): totally prevented VEGF-dependent growth | effect on growth ([1]; compound alone, 15 μg/ml, not statistically significant): slight growth inhibitory effect | retinal neovascular score (sum of quadrant scores) ([2]; 2 mg/kg/day intraperitoneal): 7.29 | retinal neovascular score (sum of quadrant scores) ([2]; 6 mg/kg/day intraperitoneal): 4.59 | change of retinal neovascularization score versus vehicle ([2]; 6 mg/kg, differences not statistically significant): reduced | retinal neovascular score (sum of quadrant scores) ([2]; 20 mg/kg/day intraperitoneal): 5.56 | growth promoting effect [3]: 20 to 30% | effect on MAP kinase phosphorylation [4]: increased MAP kinase phosphorylation over time
